Patent publication US20230364032A1, “USE OF 2-HOBA TO TREAT ATHEROSCLEROSIS” (Vanderbilt University, priority 2020, published 2023)
Where “and” joins values, the source holds several entries; their conditions need not be identical. Equal values may be shown once. Entries after “also recorded” stand apart in the source; their conditions may differ.

What was measured:
[1] = tested on: atherosclerotic lesions of Ldlr−/− mice; assay: Lesion apoptosis (TUNEL) and efferocytosis; type: in vivo, mouse
Experimental: Cell apoptosis was induced as indicated and detected by fluorescent labeled Annexin V staining and quantitated by either Flow Cytometry (BD 5 LSRII) or counting Annexin V positive cells in images captured under a fluorescent microscope. The apoptotic cells in atherosclerotic lesions were measured by TUNEL staining of cross-sections of atherosclerotic proximal aortas as previously described^30. The TUNEL positive cells not associated with live macrophages were considered free apoptotic cells and macrophage-associated apoptotic cells were considered phagocytosed as a measure of lesion efferocytosis as previously described^30.

primary macrophages = assay: H2O2-induced apoptosis of macrophages (Annexin V); type: cell-based, mouse; conditions: 250 μM H2O2, 24 h, 500 μM compound; compared to vehicle or 4-HOBA
Experimental: (6A and 6B) Mouse aortic endothelial cells (6A) or primary macrophages (6B) were incubated for 24 h with 250 μM H2O2 alone or with either 4-HOBA or 2-HOBA (500 μM). Apoptotic cells were then detected by Annexin V staining and flow cytometry. (6C to 6H) The mRNA levels of IL-1β, IL-6, and TNF-α were analyzed by real time PCR in the peritoneal macrophages incubated for 24 h with either oxidized LDL (6C-6E) or 250 μM H2O2 (6F-6H) alone or with either 4-HOBA or 2-HOBA (500 μM). (6A to 6H) Data are presented as mean±SEM from three independent experiments, ***p<0.001, One-way ANOVA with Bonferroni's post hoc test.
Peritoneal macrophages were isolated from mice 72 hours post injection of 3% thioglycollate and maintained in DMEM plus 10% fetal bovine serum (FBS, Gibco) as previously described^30. Human aortic endothelial cells (HAECs) were obtained from Lonza and maintained in endothelial cell basal medium-2 plus 1% FBS and essential growth factors (Lonza).
Cell apoptosis was induced as indicated and detected by fluorescent labeled Annexin V staining and quantitated by either Flow Cytometry (BD 5 LSRII) or counting Annexin V positive cells in images captured under a fluorescent microscope. The apoptotic cells in atherosclerotic lesions were measured by TUNEL staining of cross-sections of atherosclerotic proximal aortas as previously described^30. […]

[2] = biological target: anti-MDA antibody / MDA-BSA (Bos taurus, UniProt P02769); assay: Anti-MDA antibody interaction with MDA-BSA (dot blot); conditions: MDA-BSA incubated with 1× or 5× 2-HOBA
Chain of anti-MDA antibody / MDA-BSA (P02769 25-607): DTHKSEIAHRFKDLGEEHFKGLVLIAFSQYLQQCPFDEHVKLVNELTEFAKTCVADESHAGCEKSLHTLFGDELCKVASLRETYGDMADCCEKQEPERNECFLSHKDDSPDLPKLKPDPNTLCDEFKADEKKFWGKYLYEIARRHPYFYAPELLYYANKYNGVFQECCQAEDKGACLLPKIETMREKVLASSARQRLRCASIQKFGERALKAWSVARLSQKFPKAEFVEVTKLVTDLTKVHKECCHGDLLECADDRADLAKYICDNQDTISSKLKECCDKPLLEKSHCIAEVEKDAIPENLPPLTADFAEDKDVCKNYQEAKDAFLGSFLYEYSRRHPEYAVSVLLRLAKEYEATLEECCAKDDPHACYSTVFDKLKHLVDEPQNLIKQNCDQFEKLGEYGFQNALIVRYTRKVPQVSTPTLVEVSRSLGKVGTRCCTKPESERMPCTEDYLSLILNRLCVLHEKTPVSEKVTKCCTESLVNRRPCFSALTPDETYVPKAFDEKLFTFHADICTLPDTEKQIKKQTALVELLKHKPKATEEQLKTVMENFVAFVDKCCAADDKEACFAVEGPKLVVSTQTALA
Experimental: A series of doses of MDA-BSA or MDA alone were incubated with 1× or 5×2-HOBA. Then 2 μl of each sample was loaded onto HyBond-C membrane, and incubated with the blocking buffer, primary anti-MDA antibody and fluorescent secondary antibody after vigorous washing. The image was captured by the Odyssey system (FIG. 10A) and quantitated by ImageJ software (FIG. 10B).

peritoneal macrophages = assay: Macrophage cytokine mRNA by real time PCR (oxidized LDL or H2O2); type: cell-based, mouse
Experimental: […] Apoptotic cells were then detected by Annexin V staining and flow cytometry. […] (6A to 6H) Data are presented as mean±SEM from three independent experiments, ***p<0.001, One-way ANOVA with Bonferroni's post hoc test.
Total RNA was isolated and purified, cDNA was synthesized, and the mRNA levels of IL-1β, IL-6 and TNF-α were measured by real-time PCR. The data are from three independent experiments. *p<0.05, **p<0.01, ***p<0.001, One-way ANOVA (Bonferroni's post hoc test).
Total RNA was extracted and purified using Aurum Total RNA kit (Bio-Rad) according to the manufacturer's protocol. Complementary DNA was synthesized with iScript reverse transcriptase (Bio-Rad). Relative quantitation of the target mRNA was performed using specific primers, SYBR probe (Bio-Rad), and iTaqDNA polymerase (Bio-Rad) on IQ5 Thermocylcer (Bio-Rad) and normalized with 18S, as described earlier. 18S, IL-1[…] and TNF-[…] primers used were as described earlier^67.

[3] = tested on: Apoe−/− macrophage foam cells; assay: Capacity of HDL from treated mice to reduce macrophage cholesterol; type: cell-based, mouse; conditions: for efficiency of HDL at reducing cholesterol stores in Apoe−/− macrophage foam cells: HDL isolated from treated Ldlr−/− mice, 25 μg protein/ml, 24 h
Experimental: FIGS. 7A-7G show the effects of 2-HOBA on MDA-HDL adducts and HDL function. (7A) The levels or MDA adducts were measured by ELISA in HDL isolated from Ldlr mice treated as described in FIG. 1. Data are presented as mean±SEM (N=8 pet group), *** p<0.001, One-way ANOVA with Bonferroni's post hoc test. (7B) Western blots of apoAl and MDA-apoAl in HDL isolated from plasma by immunoprecipitation using primary anti-apoAl antibody. Ldlf mice were treated as described In FIG. 1 and apoAl and MDA-apoAl from Ldlr mice consuming a chow diet are included f0t comparison. (7C) Quantitation using lmageJ software of the mean density ratio (arbitrary units) of MDA-apoAl to apoAl detected by Western blotting (7B). (7D The HDL was isolated from the plasma of Ld/r-mice consuming a western diet for 16 weeks and treated with 2-HOBA or 4-HOBA or vehicle. Cholesterol enriched macrophages were incubated for 24 h with HDL (25 μg protein/ml). and the % reduction in cellular cholesterol content measured. Data presented as mean±SEM. N=7 per group, *p<0.05.**p<0.01, One-way ANOVA with Bonferroni's post hoc test (7E) The MDA adducts were measured by ELISA in HDL isolated from control or FH subjects before and after LDL apheresis. N=7 or 8, ***p<0.001, One-way ANOVA with Bonferroni's post hoc test. (7F) The MDA-Lysyl crosslink content in HDL from control or FH subjects (n=6 per group), p=0.02, Mann-Whitney test (7G) The capacity of HDL from control or FH subjects pre and post LDL apheresis (n=7 per group) to reduce the cholesterol content of apoE macrophages.
HDL was isolated from mouse plasma using HDL Purification Kit (Cell BioLabs, Inc.) following the manufacturer's protocol. Briefly, apoB containing lipoproteins and HDL were sequentially precipitated with dextran sulfate. The HDL was then resuspended and washed. After removing the dextran sulfate, the HDL was dialyzed against PBS. […] Cellular cholesterol was measured before and after incubation with HDL using an enzymatic cholesterol assay as described^61.

Q: For `NCc1ccccc1O` [2-HOBA, 2-hydroxybenzylamine], which “efferocytosis and cell death in atherosclerotic lesions” value ([1]; Ldlr−/− mice) is on record?
A: enhanced efferocytosis; also recorded: prevents cell death and increases efferocytosis

Q: What about the “reduction of number of TUNEL positive cells in proximal aortic lesions” value ([1]; Ldlr−/− mice, compared to 4-HOBA) of the same compound?
A: 72.4%

Q: What about the “reduction of number of TUNEL positive cells in proximal aortic lesions” value ([1]; Ldlr−/− mice, compared to vehicle) of the same compound?
A: 72% and 72.9%

Q: What about the “increase of TUNEL positive cells not associated with macrophages” value ([1]; lesions of mice treated with 4-HOBA versus 2-HOBA) of the same compound?
A: 2.0 fold

Q: What about the “increase of TUNEL positive cells not associated with macrophages” value ([1]; lesions of mice treated with vehicle versus 2-HOBA) of the same compound?
A: 1.9 fold

Q: What about the “number of apoptotic cells, macrophage cultures” value (primary macrophages) of the same compound?
A: markedly decreased

Q: What about the “interference with antibody recognition of MDA-albumin adducts” value [2] of the same compound?
A: does not interfere; also recorded: does not impact

Q: And the “levels of IL-1β, IL-6, and TNF-α mRNA” value (peritoneal macrophages; 500 μM 2-HOBA in the presence of H2O2 (100 μM, 24 hours))?
A: significantly reduced

Q: And the “macrophage inflammatory response: mRNA levels of IL-1β, IL-6, and TNF-α” value (peritoneal macrophages; oxidized LDL, 24 h, 500 μM)?
A: significantly reduced

Q: And the “capacity of mouse HDL to reduce macrophage cholesterol stores” value ([3]; HDL from treated Ldlr−/− mice)?
A: increased; also recorded: enhanced capacity

Q: What about the “efficiency of HDL at reducing cholesterol stores in Apoe−/− macrophage foam cells” value ([3]; versus 4-HOBA treated mice) of the same compound?
A: 1.7 fold

Q: And the “efficiency of HDL at reducing cholesterol stores in Apoe−/− macrophage foam cells” value ([3]; versus vehicle treated mice)?
A: 2.2 fold
